In patent US20200245620A1 (priority 2018, published 2020):
In brackets after ≈: the same amount, converted by molar mass. Several values for one entry are separate records, joined by “and”; a condition that tells them apart may be missing. Equal values may be shown once. Read-outs that look alike come from different tables or passages of the source.

What was measured:
[1] = test system: wheat scab; assay type: in vivo
[2] = test system: barley rust; conditions: in vivo
[3] = test system: wheat scab fungi; assay type: in vivo
[4] = test system: Fusarium asiaticum; test: microbe, parasite or virus in culture; assay type: cell-based; conditions: Fusarium asiaticum, read-out: Growth Inhibition Rate
[5] = test system: Fusarium graminearum; test: microbe, parasite or virus in culture; assay type: cell-based; conditions: for EC50: F.g sensitive strains; for Average Fungal Colony Diameter: sensitive strains
[6] = test system: barley scab (fusarium head blight); assay type: in vivo
[7] = test system: barley scab (fusarium head blight); assay type: in vivo; remark: listed apart in the source
[8] = test system: barley powdery mildew; test: Field efficacy on barley diseases; assay type: in vivo
Experimental: (§1) The field prevention and control efficacy of the fungicidal composition preparations of embodiments 1-8 on barley diseases was experimented, wherein different doses of single jinggangmycin agent and single ipconazole agent were designed for treatment. In 2014, application was carried out for the first time at the initial stage of barley blooming, application was carried out for the second time after five days, water consumption was 50 kg/Mu, the area of each plot was 50 square meters, each treatment was repeated for three times, and the fungicidal composition was not applied on the blank control. A conventional agent, polyketone wettable powder, was adopted as a control agent. According to a corresponding method specified by the industrial standard of Guidelines for the Field Efficacy Trials of Fungicides issued by the Ministry of Agriculture, the occurrences of barley scab, powdery mildew, rust and leaf blight were investigated at the stage of milky ripeness, disease indexes and prevention and control effects were calculated, and the result is shown in table 8. One hundred and fifty barley ears were sampled randomly every five treated points at the stage of wax ripeness, taken in for threshing and assayed according to the method of application embodiment 1, and toxin contents of the kernels were calculated.

[9] = test system: barley leaf blight; test: Field efficacy on barley diseases; assay type: in vivo
Experimental: as §1

[10] = test system: Carbendazim-resistant fusarium asiaticum; test: microbe, parasite or virus in culture; assay type: cell-based

**Q.** How did the “Disease Index Prevention Effect, Actual Prevention Effect” value ([1]; ipconazole 4 g a.i./Mu) turn out when `CC(C)C1CCC(Cc2ccc(Cl)cc2)C1(O)Cn1cncn1` (stereo not shown) [Ipconazole] was run?
**A.** The value was 42.65%.

**Q.** What about the “Disease Index Prevention Effect, Actual Prevention Effect” value ([1]; ipconazole 6 g a.i./Mu) of the same compound?
**A.** Its value is 53.45%.

**Q.** And the “Disease Index Prevention Effect, Actual Prevention Effect” value ([1]; ipconazole 8 g a.i./Mu)?
**A.** Its value is 67.58%.

**Q.** What about the “Disease Index Prevention Effect, Actual Prevention Effect” value ([1]; ipconazole 10 g a.i./Mu) of the same compound?
**A.** The value was 72.41%.

**Q.** And the “Disease Index Prevention Effect, Actual Prevention Effect” value ([1]; ipconazole 16 g a.i./Mu)?
**A.** Its value is 80.33%.

**Q.** And the “Disease Index Prevention Effect, Rust” value [2]?
**A.** Its value is 74.25% and 82.65%.

**Q.** And the “DON Contamination Reduction Rate” value ([3]; ipconazole 4 g a.i./Mu)?
**A.** The value was 49.11%.

**Q.** And the “Grain Toxin Content” value ([3]; ipconazole 4 g a.i./Mu)?
**A.** The value was 5.41 μg of toxin/g of kernels.

**Q.** And the “DON Contamination Reduction Rate” value ([3]; ipconazole 6 g a.i./Mu)?
**A.** Its value is 59.08%.

**Q.** What about the “Grain Toxin Content” value ([3]; ipconazole 6 g a.i./Mu) of the same compound?
**A.** The value was 4.35 μg of toxin/g of kernels.

**Q.** What about the “DON Contamination Reduction Rate” value ([3]; ipconazole 8 g a.i./Mu) of the same compound?
**A.** The value was 61.24%.

**Q.** And the “Grain Toxin Content” value ([3]; ipconazole 8 g a.i./Mu)?
**A.** Its value is 4.12 μg of toxin/g of kernels.

**Q.** And the “DON Contamination Reduction Rate” value ([3]; ipconazole 10 g a.i./Mu)?
**A.** The value was 63.78%.

**Q.** And the “Grain Toxin Content” value ([3]; ipconazole 10 g a.i./Mu)?
**A.** Its value is 3.85 μg of toxin/g of kernels.

**Q.** What about the “DON Contamination Reduction Rate” value ([3]; ipconazole 16 g a.i./Mu) of the same compound?
**A.** Its value is 71.50%.

**Q.** And the “Grain Toxin Content” value ([3]; ipconazole 16 g a.i./Mu)?
**A.** The value was 3.03 μg of toxin/g of kernels.

**Q.** What about the inhibition at 0.0125 µg/mL [4] of the same compound?
**A.** The inhibition at 0.0125 µg/mL was 29.5%.

**Q.** What about the inhibition at 0.025 µg/mL [4] of the same compound?
**A.** The inhibition at 0.025 µg/mL was 38.6%.

**Q.** What about the inhibition at 0.05 µg/mL [4] of the same compound?
**A.** The inhibition at 0.05 µg/mL was 41.7%.

**Q.** And the inhibition at 0.1 µg/mL [4]?
**A.** Its inhibition at 0.1 µg/mL is over 50%.

**Q.** And the inhibition at 0.2 µg/mL [4]?
**A.** Its inhibition at 0.2 µg/mL is 76.6%.

**Q.** And the EC50 ([5]; Fusarium graminearum)?
**A.** The EC50 was 0.89 µg/mL (≈ 2.67 µM).

**Q.** And the inhibition at 0.0125 µg/mL ([5]; Fusarium graminearum, read-out: Growth Inhibition Rate, sensitive strains, 0.0125 μg/mL)?
**A.** Its inhibition at 0.0125 µg/mL is 28.9%.

**Q.** And the inhibition at 0.025 µg/mL ([5]; Fusarium graminearum, read-out: Growth Inhibition Rate, sensitive strains, 0.025 μg/mL)?
**A.** The inhibition at 0.025 µg/mL was 38.3%.

**Q.** And the inhibition at 0.05 µg/mL ([5]; Fusarium graminearum, read-out: Growth Inhibition Rate, sensitive strains, 0.05 μg/mL)?
**A.** Its inhibition at 0.05 µg/mL is 40.8%.

**Q.** And the inhibition at 0.1 µg/mL ([5]; Fusarium graminearum, read-out: Growth Inhibition Rate, sensitive strains, 0.1 μg/mL)?
**A.** The inhibition at 0.1 µg/mL was over 50%.

**Q.** What about the inhibition at 0.2 µg/mL ([5]; Fusarium graminearum, read-out: Growth Inhibition Rate, sensitive strains, 0.2 μg/mL) of the same compound?
**A.** The inhibition at 0.2 µg/mL was 77.1%.

**Q.** What about the “Average Fungal Colony Diameter” value ([5]; 0.0125 μg/mL) of the same compound?
**A.** Its value is 53.5 mm.

**Q.** What about the “Average Fungal Colony Diameter” value ([5]; 0.025 μg/mL) of the same compound?
**A.** Its value is 46.4 mm.

**Q.** And the “Average Fungal Colony Diameter” value ([5]; 0.05 μg/mL)?
**A.** Its value is 44.5 mm.

**Q.** And the “Average Fungal Colony Diameter” value ([5]; 0.1 μg/mL)?
**A.** The value was 31.8 mm.

**Q.** What about the “Average Fungal Colony Diameter” value ([5]; 0.2 μg/mL) of the same compound?
**A.** Its value is 17.2 mm.

**Q.** What about the “Disease Index Prevention Effect, Fusarium head blight” value ([6]; ipconazole 5 g a.i./Mu) of the same compound?
**A.** Its value is 43.84%.

**Q.** What about the “Disease Index Prevention Effect, Fusarium head blight” value ([6]; ipconazole 10 g a.i./Mu) of the same compound?
**A.** The value was 62.41%.

**Q.** What about the “Grain Toxin Content” value ([7]; ipconazole 5 g a.i./Mu) of the same compound?
**A.** Its value is 3.54 mg of DON/Kg of kernel.

**Q.** What about the “Toxin Reduction Percentage” value ([7]; ipconazole 5 g a.i./Mu) of the same compound?
**A.** The value was 58.50%.

**Q.** What about the “Grain Toxin Content” value ([7]; ipconazole 10 g a.i./Mu) of the same compound?
**A.** The value was 2.57 mg of DON/Kg of kernel.

**Q.** And the “Toxin Reduction Percentage” value ([7]; ipconazole 10 g a.i./Mu)?
**A.** The value was 69.87%.

**Q.** What about the “Disease Index Prevention Effect, Powdery Mildew” value ([8]; ipconazole 5 g a.i./Mu) of the same compound?
**A.** The value was 76.24%.

**Q.** What about the “Disease Index Prevention Effect, Powdery Mildew” value ([8]; ipconazole 10 g a.i./Mu) of the same compound?
**A.** The value was 85.64%.

**Q.** What about the “Disease Index Prevention Effect, Leaf Blight” value ([9]; ipconazole 5 g a.i./Mu) of the same compound?
**A.** The value was 64.29%.

**Q.** What about the “Disease Index Prevention Effect, Leaf Blight” value ([9]; ipconazole 10 g a.i./Mu) of the same compound?
**A.** Its value is 75.34%.

**Q.** What about the “DON Biosynthesis Inhibition Rate” value [10] of the same compound?
**A.** Its value is 0.36% and 0.31%.

**Q.** What about the “Toxin Production Capability” value [10] of the same compound?
**A.** The value was 87.68 μgDON/g by dry weight of hyphae and 52.16 μgDON/g by dry weight of hyphae.

**Q.** What about the “inhibitory effects on the toxin biosynthesis capability of the fusaria” value [10] of the same compound?
**A.** Its value is “does not have significant inhibitory effects”.

**Q.** `CCOC(=O)C(C#N)=C(N)c1ccccc1` [Phenamacril, phenamacril] was tested. Which EC50 [5] did it give?
**A.** Its EC50 is 0.165 µg/mL (≈ 0.763 µM).
